Like-named read-outs stand apart in the source and are kept apart here. Peptide text beside a SMILES is read from it. * marks the point of attachment. NOTA = O=C(O)CN1CCN(CC(=O)O)CCN(CC(=O)*)CC1; AEEEA = NCCOCCOCCOCC(=O)O
How the values were obtained:
[1] = Biodistribution (γ-counter); format: in vivo, BALB/C nude mice; details: male, BALB/C nude, mouse, iv, total radioactivity, mean ± SD, n = 3
Method: (§1) Micro-PET imaging was conducted using an Inveon PET scanner (Siemens, Germany). Dynamic PET examine were acquired over the first 60 min following the simultaneous injection of 7.4 to 9.25 MBq (200 to 250 μCi) of [^68Ga]Ga-HN11-1 and [^68Ga]Ga-HN11-2. After reconstructing the images and delineating the regions of interest (ROIs), time-radioactivity curves were plotted to obtain the Tumor/Muscle (T/M) ratios. %ID/g represents the percentage of the injected dose of the radiotracer that accumulates in a specific tissue per gram of tissue weight. For the biodistribution study, the xenograft models received an intravenous injection of 3.7 to 5.5 MBq (100 to 150 μCi) of [^68Ga]Ga-HN11-1. After the designated period (10, 30, 60, and 90 min), the mice were euthanized, and important tissues and organs were dissected and collected. The samples were counted using the γ-counter for determining the %ID/g, presented as mean ± standard deviation (SD).
(§2) A549 cell lines were provided by the China Center for Type Culture Collection (CCTCC) and cultured in RPMI-1640 medium supplemented with 10 % fetal bovine serum and 100 U/mL penicillin-streptomycin. The lentivirus system was implemented to introduce PD-L2 (PDCD1LG2) over-expressed cDNA into the A549 cells. The viral vectors were produced in 293T cells and co-transfected with the psAX2, pMD2G and PD-L2 plasmids. A549 cells transduced with the vectors were selectively grown in 1.6 μg/mL puromycin. Transfection efficiency was identified by WB and real-time quantitative PCR. All the cells were cultured in an incubator at 37° C with 5 % CO2 atmosphere. A549 and A549-PD-L2 cells (5 × 10^6, 200 μL)were subcutaneously implanted into the right shoulder of BALB/C nude mice (male, 4-6 weeks), respectively. When the tumors reached to 5 - 8 mm in diameter, the mice were subjected to in vivo and ex vivo studies. All the mice were purchased from the Laboratory Animal Center of Central South University.

[2] = system: A549-PD-L2 xenograft tumor models; experiment: Biodistribution (γ-counter); format: in vivo, BALB/C nude mice; details: mean ± SD, n = 3
Method: as §1, §2

[3] = In vitro stability in saline (radio-HPLC); format: physicochemical; details: room temperature, over 4 h (0.5, 1, 2, 4 h), 3.74 MBq
Method: The in vitro stability of [^68Ga]Ga-HN11-1 and [^68Ga]Ga-HN11-2 (3.74 MBq) in saline and serum was tested by radio-HPLC analysis of its radiochemical purity after incubation at room temperature for 0.5 , 1 , 2 and 4 h.

[4] = system: A549 tumor xenograft models; experiment: Dynamic micro-PET imaging in A549 xenografts; format: in vivo, BALB/C nude mice; details: each time point 10 to 60 min, n = 3
Method: as §1
A549 cell lines were provided by the China Center for Type Culture Collection (CCTCC) and cultured in RPMI-1640 medium supplemented with 10 % fetal bovine serum and 100 U/mL penicillin-streptomycin. The lentivirus system was implemented to introduce PD-L2 (PDCD1LG2) over-expressed cDNA into the A549 cells. […] Transfection efficiency was identified by WB and real-time quantitative PCR. […]

CC[C@H](C)[C@H](NC(=O)[C@H](CCCNC(=N)N)NC(=O)CNC(=O)[C@H](CCC(=O)O)NC(=O)[C@H](CC(N)=O)NC(=O)[C@H](Cc1ccc(O)cc1)NC(=O)[C@H](CCCNC(=N)N)NC(=O)[C@H](Cc1ccc(O)cc1)NC(=O)[C@H](Cc1c[nH]cn1)NC(=O)COCCOCCOCCNC(=O)CN1CCN(CC(=O)O)CCN(CC(=O)O)CC1)C(=O)N[C@@H](CCCNC(=N)N)C(=O)N[C@@H](CC(N)=O)C(=O)O [[^68Ga]Ga-HN11-1, metal not drawn] ({NOTA-AEEEA}-HYRYNEGRIRN-OH) gave a tissue to tissue ratio at 1 h ([1]; tumor and lung, 60 min p.i., read-out: Tumor/Lung ratio) of 3.01 ± 0.53, a tissue to tissue ratio at 1.5 h ([1]; tumor and lung, 90 min p.i., read-out: Tumor/Lung ratio) of 1.05 ± 0.24 and a tissue to tissue ratio at 1 h ([1]; tumor and lung, with HN11-1 (block; amount not stated), 60 min HN11-1 Block, read-out: Tumor/Lung ratio) of 0.69 ± 0.23. For the same compound, the tissue to tissue ratio at 10 min ([1]; tumor and muscle, 10 min p.i., read-out: Tumor/Muscle ratio) was 1.82 ± 0.32, the tissue to tissue ratio at 0.5 h ([1]; tumor and muscle, 30 min p.i., read-out: Tumor/Muscle ratio) was 5.11 ± 0.25 and the tissue to tissue ratio at 1 h ([1]; tumor and muscle, 60 min p.i., read-out: Tumor/Muscle ratio) was 4.11 ± 1.25. The tissue to tissue ratio at 1.5 h ([1]; tumor and muscle, 90 min p.i., read-out: Tumor/Muscle ratio) was 2.66 ± 0.43, the tissue to tissue ratio at 1 h ([1]; tumor and muscle, with HN11-1 (block; amount not stated), 60 min HN11-1 Block, read-out: Tumor/Muscle ratio) was 1.11 ± 0.27 and the tissue uptake at 10 min ([1]; tumor, 10 min p.i., read-out: Tumor uptake) was 1.61 ± 0.28 %ID/g. It also gave a tissue uptake at 0.5 h ([1]; tumor, 30 min p.i., read-out: Tumor uptake) of 3.52 ± 0.35 %ID/g, a tissue uptake at 1 h ([1]; tumor, 60 min HN11-1 Block, read-out: Tumor uptake) of 0.63 ± 0.18 %ID/g and a tissue uptake at 1 h ([1]; tumor, 60 min p.i., read-out: Tumor uptake) of 2.2 ± 0.3 %ID/g. The tissue uptake at 1.5 h ([1]; tumor, 90 min p.i., read-out: Tumor uptake) was 0.39 %ID/g, the Blood uptake ([2]; 10 min p.i.) was 2.83 ± 0.21 %ID/g and the Heart uptake ([2]; 10 min p.i.) was 1.41 ± 0.10 %ID/g. It also gave a Liver uptake ([2]; 10 min p.i.) of 2.90 ± 0.47 %ID/g, a Lung uptake ([2]; 10 min p.i.) of 1.56 ± 0.06 %ID/g and a Spleen uptake ([2]; 10 min p.i.) of 1.91 ± 0.14 %ID/g. For the same compound, the Stomach uptake ([2]; 10 min p.i.) was 1.27 ± 0.14 %ID/g, the Blood uptake ([2]; 30 min p.i.) was 1.34 ± 0.16 %ID/g and the Heart uptake ([2]; 30 min p.i.) was 0.85 ± 0.10 %ID/g. For the same compound, the Kidney uptake ([2]; 30 min p.i.) was 66.15 ± 0.73 %ID/g, the Liver uptake ([2]; 30 min p.i.) was 1.44 ± 0.31 %ID/g and the Lung uptake ([2]; 30 min p.i.) was 0.96 ± 0.09 %ID/g. It also gave a Spleen uptake ([2]; 30 min p.i.) of 0.86 ± 0.16 %ID/g, a Stomach uptake ([2]; 30 min p.i.) of 0.48 ± 0.04 %ID/g and a Blood uptake ([2]; 60 min HN11-1 Block) of 0.33 ± 0.02 %ID/g. For the same compound, the Heart uptake ([2]; 60 min HN11-1 Block) was 0.18 ± 0.02 %ID/g, the Kidney uptake ([2]; 60 min HN11-1 Block) was 76.77 ± 7.10 %ID/g and the Liver uptake ([2]; 60 min HN11-1 Block) was 1.20 ± 0.32 %ID/g. For the same compound, the Lung uptake ([2]; 60 min HN11-1 Block) was 0.92 ± 0.04 %ID/g, the Spleen uptake ([2]; 60 min HN11-1 Block) was 0.96 ± 0.17 %ID/g and the Stomach uptake ([2]; 60 min HN11-1 Block) was 0.26 ± 0.05 %ID/g. It also gave a Blood uptake ([2]; 60 min p.i.) of 0.34 ± 0.01 %ID/g, a Heart uptake ([2]; 60 min p.i.) of 0.18 ± 0.02 %ID/g and a Kidney uptake ([2]; 60 min p.i.) of 74.56 ± 3.78 %ID/g. For the same compound, the Liver uptake ([2]; 60 min p.i.) was 0.91 ± 0.14 %ID/g, the Lung uptake ([2]; 60 min p.i.) was 0.74 ± 0.04 %ID/g and the Spleen uptake ([2]; 60 min p.i.) was 0.51 ± 0.17 %ID/g. For the same compound, the Stomach uptake ([2]; 60 min p.i.) was 0.19 ± 0.03 %ID/g, the Blood uptake ([2]; 90 min p.i.) was 0.16 ± 0.03 %ID/g and the Heart uptake ([2]; 90 min p.i.) was 0.13 ± 0.01 %ID/g. It also gave a Kidney uptake ([2]; 90 min p.i.) of 87.01 ± 3.40 %ID/g, a Liver uptake ([2]; 90 min p.i.) of 0.28 ± 0.17 %ID/g and a Lung uptake ([2]; 90 min p.i.) of 0.40 ± 0.11 %ID/g. For the same compound, the Spleen uptake ([2]; 90 min p.i.) was 0.21 ± 0.04 %ID/g, the Stomach uptake ([2]; 90 min p.i.) was 0.20 ± 0.02 %ID/g and the “in vitro stability in saline (radiochemical purity)” value [3] was over 95%. For the same compound, the “tumor uptake in A549 tumor xenograft models” value [4] was “almost negligible”.

Reference: publication PMC11528066, “Noninvasive Monitoring of Programmed Death-Ligand 2 Expression with Positron Emission Tomography using ^68Ga-labeled Peptide Antagonist in Preclinical and Exploratory Human Studies” (Research, 2024)
